Results: US20250263650A1, “FUNGUS AND MICROBIAL AGENT FOR TREATING MERCURY CONTAMINATION, USE THEREOF, MERCURY REMOVAL METHOD, AND METHOD FOR I[…] CAPABLE OF TREATING MERCURY CONTAMINATION” (ZHEJIANG UNIVERSITY, priority 2021, published 2025)

Tested on: Zea mays L. seeds
Assay: Tolerance of Zea mays L. to methylmercury and divalent mercury (seed germination in soil)
Format: in vivo
Method: Methylmercury was added to the soil, where five concentrations of 0 μg/kg, 2.5 μg/kg, 5 μg/kg, 7.5 μg/kg, and 10 μg/kg were set. Divalent mercury was added to the soil, where five concentrations of 0 mg/kg, 20 mg/kg, 30 mg/kg, 40 mg/kg, and 50 mg/kg were set. The soil was placed in a cultivation vessel (with a height of 14 cm and a diameter of 7 cm).
Seed disinfection and cultivation: Zea mays L. seeds were disinfected for 5 min in 1% sodium hypochlorite and then washed three times with sterile water (1 min each time), disinfected for 10 min with 15% H2O2 and then washed three times with sterile water (1 min each time), and then placed in a 2% water agar medium and vernalized overnight at 4° C. Then, the pretreated seeds were sown into the soil, and 10 P. purpureum seeds or 5 Zea mays L. seeds were sown in each vessel.

## [CH3][Hg][Cl] [methylmercury]
Soil with 2.5 μg/kg methylmercury
  germination rate of the Zea mays L. seeds: 100%
Soil with 10 μg/kg methylmercury
  germination rate of the Zea mays L. seeds: 80%

## [Hg+2] [divalent mercury]
Soil with 20 mg/kg divalent mercury
  germination rate of the Zea mays L. seeds: 100%
Soil with 30 mg/kg divalent mercury
  germination rate of the Zea mays L. seeds: 80%
Soil with 40 mg/kg divalent mercury
  germination rate of the Zea mays L. seeds: 60%
